Measurements taken from ChEMBL document CHEMBL1149176, “(2R)-2-ethylchromane-2-carboxylic acids: discovery of novel PPARalpha/gamma dual agonists as antihyperglycemic and hypolipidemic agents” (J Med Chem, 2004).
Values belong to the molecule of their own block, whether it stands above or below them.

Assays:
[1] = target: T1, Peroxisome proliferator-activated receptor alpha (Homo sapiens, UniProt Q07869); assay: In vitro potency of PPAR gene activation against human Peroxisome proliferator activated receptor alpha using chimeric Gal4-hPPAR transactivation assay (TA)
T1 sequence (Q07869 whole entry): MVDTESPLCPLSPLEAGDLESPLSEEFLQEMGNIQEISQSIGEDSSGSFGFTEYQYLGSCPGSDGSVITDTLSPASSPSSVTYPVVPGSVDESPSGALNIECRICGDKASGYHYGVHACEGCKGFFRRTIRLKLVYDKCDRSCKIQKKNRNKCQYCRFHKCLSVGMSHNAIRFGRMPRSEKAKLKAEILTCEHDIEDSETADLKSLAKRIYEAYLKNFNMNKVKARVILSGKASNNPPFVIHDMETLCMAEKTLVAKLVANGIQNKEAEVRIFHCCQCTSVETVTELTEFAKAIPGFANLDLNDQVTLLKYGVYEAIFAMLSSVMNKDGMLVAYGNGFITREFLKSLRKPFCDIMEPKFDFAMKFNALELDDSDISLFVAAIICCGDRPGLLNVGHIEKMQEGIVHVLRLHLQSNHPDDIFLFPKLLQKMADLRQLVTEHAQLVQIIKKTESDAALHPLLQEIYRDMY

[2] = target: T2, Peroxisome proliferator-activated receptor delta (Homo sapiens, UniProt Q03181)
T2 sequence (Q03181 whole entry): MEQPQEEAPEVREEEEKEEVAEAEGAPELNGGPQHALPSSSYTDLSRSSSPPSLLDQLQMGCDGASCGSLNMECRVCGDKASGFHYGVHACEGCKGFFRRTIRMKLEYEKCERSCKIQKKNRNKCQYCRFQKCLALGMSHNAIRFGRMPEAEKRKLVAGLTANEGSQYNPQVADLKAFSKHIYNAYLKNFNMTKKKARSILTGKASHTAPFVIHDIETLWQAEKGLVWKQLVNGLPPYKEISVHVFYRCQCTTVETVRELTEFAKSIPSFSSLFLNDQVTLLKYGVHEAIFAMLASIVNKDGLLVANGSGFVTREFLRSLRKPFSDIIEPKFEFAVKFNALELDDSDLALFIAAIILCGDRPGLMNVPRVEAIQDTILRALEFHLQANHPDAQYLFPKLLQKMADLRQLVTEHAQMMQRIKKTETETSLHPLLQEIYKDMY

[3] = target: T3, Peroxisome proliferator-activated receptor gamma (Homo sapiens, UniProt P37231); assay: In vitro binding affinity for human peroxisome proliferator activated receptor gamma using scintillation proximity assay (SPA)
T3 sequence (P37231 whole entry): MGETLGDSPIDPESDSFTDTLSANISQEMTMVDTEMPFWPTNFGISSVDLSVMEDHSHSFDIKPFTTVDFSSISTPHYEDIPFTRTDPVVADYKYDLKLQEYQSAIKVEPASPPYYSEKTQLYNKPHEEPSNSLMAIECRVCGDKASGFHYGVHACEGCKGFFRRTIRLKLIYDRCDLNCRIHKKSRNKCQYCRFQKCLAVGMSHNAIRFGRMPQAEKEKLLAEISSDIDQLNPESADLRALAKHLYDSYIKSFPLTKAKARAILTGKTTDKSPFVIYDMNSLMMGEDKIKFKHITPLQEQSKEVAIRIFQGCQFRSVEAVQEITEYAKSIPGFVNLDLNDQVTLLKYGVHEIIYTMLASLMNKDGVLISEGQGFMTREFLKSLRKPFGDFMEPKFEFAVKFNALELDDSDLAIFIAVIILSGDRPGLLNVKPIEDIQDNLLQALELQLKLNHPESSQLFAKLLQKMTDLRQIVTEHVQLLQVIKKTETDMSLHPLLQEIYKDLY

[4] = target: T3, Peroxisome proliferator-activated receptor gamma; assay: (§1) In vitro transcriptional activation by human PPAR gamma Gal4 chimera
[5] = target: T1, Peroxisome proliferator-activated receptor alpha
Description: In vitro binding affinity for human peroxisome proliferator activated receptor alpha using scintillation proximity assay (SPA)

[6] = target: T3, Peroxisome proliferator-activated receptor gamma
Description: In vitro potency of PPAR gene activation against human PPAR gamma receptor using chimeric Gal4-hPPAR transactivation assay (TA)

Rattus norvegicus [7] = assay: Dose-normalized area under curve in rat (p.o.) at 2.0 mpk; assay type: ADME, organism-based; conditions: in vivo, po, 2 mg/kg
Cricetinae gen. sp. [8] = assay: In vivo percent change in serum cholesterol in hamsters at 3 mg/kg; assay type: functional, Cricetulus griseus
Cricetinae gen. sp. [9] = assay: In vivo percent change in triglyceride in hamsters at 10 mg/kg; assay type: functional, Cricetulus griseus
Canis familiaris [10] = assay: Lower clearance in dog (i.v.) at 0.5 mpk; assay type: ADME, organism-based, Canis lupus familiaris; conditions: in vivo, iv, 0.5 mg/kg
Cricetinae gen. sp. [11] = assay: In vivo serum cholesterol in hamsters at 10 mg/kg; assay type: functional, Cricetulus griseus
Cricetinae gen. sp. [12] = assay: In vivo triglyceride in hamsters at 10 mg/kg; assay type: functional, Cricetulus griseus
[13] = target: T4, Peroxisome proliferator-activated receptor gamma (Mus musculus, UniProt P37238); assay: In vitro transcriptional activation by PPAR gamma
T4 sequence (P37238 whole entry): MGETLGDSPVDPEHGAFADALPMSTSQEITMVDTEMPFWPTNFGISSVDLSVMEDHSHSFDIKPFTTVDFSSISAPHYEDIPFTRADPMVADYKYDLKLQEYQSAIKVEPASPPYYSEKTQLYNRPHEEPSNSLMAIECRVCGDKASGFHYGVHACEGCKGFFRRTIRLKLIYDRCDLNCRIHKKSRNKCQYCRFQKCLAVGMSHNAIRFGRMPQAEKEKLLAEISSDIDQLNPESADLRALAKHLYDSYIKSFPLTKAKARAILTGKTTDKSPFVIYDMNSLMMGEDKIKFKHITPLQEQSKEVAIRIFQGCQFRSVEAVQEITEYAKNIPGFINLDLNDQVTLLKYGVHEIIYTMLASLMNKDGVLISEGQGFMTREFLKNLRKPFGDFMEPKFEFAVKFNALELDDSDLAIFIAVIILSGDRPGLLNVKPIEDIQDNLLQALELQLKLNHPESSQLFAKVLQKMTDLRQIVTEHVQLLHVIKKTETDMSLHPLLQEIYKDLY

Cricetinae gen. sp. [14] = assay: In vivo triglyceride in hamsters at 3 mg/kg; assay type: functional, Cricetulus griseus
[15] = Longer half-life in rat (i.v.) at 0.5 mpk; assay type: ADME, organism-based; conditions: in vivo, iv, 0.5 mg/kg
Rattus norvegicus [16] = assay: Lower clearance in rat (i.v.) at 0.5 mpk; assay type: ADME, organism-based; conditions: in vivo, iv, 0.5 mg/kg
Cricetinae gen. sp. [17] = assay: In vivo percent change in serum cholesterol in hamsters at 10 mg/kg; assay type: functional, Cricetulus griseus
[18] = Bioavailability in monkey (p.o.) at 2.0 mpk; assay type: ADME, organism-based; conditions: cercopithecidae, in vivo, po, 2 mg/kg
Rattus norvegicus [19] = assay: Dose-normalized area under curve in rat (i.v.) at 0.5 mpk; assay type: ADME, organism-based; conditions: in vivo, iv, 0.5 mg/kg
Canis familiaris [20] = assay: In vivo percent change in serum cholesterol in dogs at 1 mg/kg; assay type: functional, Canis lupus familiaris
[21] = Longer half-life in dog (i.v.) at 0.5 mpk; assay type: ADME, organism-based, Canis lupus familiaris; conditions: in vivo, iv, 0.5 mg/kg
Cricetinae gen. sp. [22] = assay: In vivo percent change in triglyceride in hamsters at 3 mg/kg; assay type: functional, Cricetulus griseus
[23] = Longer half-life in rat (p.o.) at 2.0 mpk; assay type: ADME, organism-based; conditions: in vivo, po, 2 mg/kg
Mesocricetus auratus = assay: In vivo serum cholesterol in Golden Syrian hamsters at 3 mg/kg
[24] = Dose-normalized area under curve in monkey (p.o.) at 2.0 mpk; assay type: ADME; conditions: cercopithecidae, in vivo, po, 2 mg/kg
[25] = Bioavailability in rat (dose 2.0 mg/kg p.o.); assay type: ADME, organism-based; conditions: in vivo, po
[26] = Lower clearance in monkey (i.v.) at 0.5 mpk; assay type: ADME, organism-based; conditions: cercopithecidae, in vivo, iv, 0.5 mg/kg
[27] = as §1; parameters: species or system Canis lupus familiaris
[28] = Longer half-life in monkey (i.v.) at 0.5 mpk; assay type: ADME, organism-based; conditions: cercopithecidae, in vivo, iv, 0.5 mg/kg
Canis familiaris [29] = assay: In vivo percent change in serum cholesterol in dogs at 3 mg/kg; assay type: functional, Canis lupus familiaris
Canis familiaris [30] = assay: Dose-normalized area under curve in dog (p.o.) at 2.0 mpk; assay type: ADME, organism-based, Canis lupus familiaris; conditions: in vivo, po, 2 mg/kg
[31] = Bioavailability in dog (p.o.) at 2.0 mpk; assay type: ADME, organism-based, Canis lupus familiaris; conditions: in vivo, po, 2 mg/kg
[32] = target: T1, Peroxisome proliferator-activated receptor alpha; assay: In vitro transcriptional activation by human PPAR alpha Gal4 chimera; Not active
[33] = target: T3, Peroxisome proliferator-activated receptor gamma; remark: listed apart in the source
Description: In vitro binding affinity for human PPAR gamma receptor using scintillation proximity assay (SPA)

Compound: CCCc1cc(Oc2ccccc2)ccc1OCCCCOc1ccc2c(c1)OC(C(=O)O)CC2 (stereo unspecified)
- EC50 [1]: 6300 nM
- IC50 [2]: > 15000 nM
- IC50 [3]: 1800 nM
- IC50 [5]: > 15000 nM
- EC50 [6]: 1600 nM

Compound: CC[C@]1(C(=O)O)CCc2ccc(OCCCOc3ccc(Oc4ccc(F)cc4)cc3Cl)cc2O1
- nAUC (Rattus norvegicus [7]): 4.8 µM·h
- Change (Cricetinae gen. sp. [8]): -21%
- Change (Cricetinae gen. sp. [9]): -48%
- Clp (Canis familiaris [10]): 3.5 mL/min/kg
- IC50 [2]: > 15000 nM
- Activity (Cricetinae gen. sp. [11]): 65 mg/dL
- Activity (Cricetinae gen. sp. [12]): 159 mg/dL
- EC50 [13]: 150 nM
- Activity (Cricetinae gen. sp. [14]): 222 mg/dL
- half-life [15]: 4.6 h
- Clp (Rattus norvegicus [16]): 3.4 mL/min/kg
- Change (Cricetinae gen. sp. [17]): -40%
- bioavailability [18]: 43%
- nAUC (Rattus norvegicus [19]): 10 µM·h
- Change (Canis familiaris [20]): -23.3%
- half-life [21]: 10 h
- Change (Cricetinae gen. sp. [22]): -27%
- half-life [23]: 3.7 h
- Activity (Mesocricetus auratus): 85 mg/dL
- nAUC [24]: 1.7 µM·h
- bioavailability [25]: 48%
- Clp [26]: 8.6 mL/min/kg
- EC50 [27]: 140 nM
- half-life [28]: 3.5 h
- Change (Canis familiaris [29]): -31.6%
- nAUC (Canis familiaris [30]): 9.2 µM·h
- bioavailability [31]: 92%

Compound: CCCc1cc(Oc2ccccc2)ccc1OCCCOc1ccc2c(c1)OC(C(=O)O)CC2 (stereo unspecified)
- EC50 [1]: 3000 nM
- IC50 [2]: 170 nM
- IC50 [3]: 980 nM
- IC50 [5]: 1500 nM
- EC50 [6]: 7300 nM

Compound: CCCc1cc(Oc2ccccc2)ccc1OCCCOc1ccc2c(c1)CCC(C(=O)O)O2 (stereo unspecified)
- IC50 [2]: > 15000 nM
- IC50 [3]: 2900 nM
- IC50 [5]: > 15000 nM
- EC50 [6]: 2800 nM
- EC50 [32]: Not Active

Compound: CCCc1cc(Oc2ccccc2)ccc1OCCCCOc1ccc2c(c1)CCC(C)(C(=O)O)O2 (stereo unspecified)
- IC50 [2]: > 50000 nM
- IC50 [3]: 2300 nM
- IC50 [5]: 2000 nM
- EC50 [6]: 1200 nM
- EC50 [32]: Not Active

Compound: CCCc1cc(Oc2ccc(S(C)(=O)=O)cc2)ccc1OCCCOc1ccc2c(c1)OC(CC)(C(=O)O)CC2 (stereo unspecified)
- IC50 [2]: > 50000 nM
- IC50 [33]: 370 nM
- IC50 [5]: > 15000 nM
- EC50 [6]: 2800 nM
- EC50 [32]: Not Active

Continued, values first:

- EC50 [1]: 220 nM
- IC50 [2]: > 50000 nM
- IC50 [3]: > 15000 nM
- EC50 [4]: 10000 nM
- IC50 [5]: 1700 nM
Compound: CCC1(C(=O)O)CCc2ccc(OCCCOc3ccc(Oc4ccccc4)cc3)cc2O1 (stereo unspecified)

- EC50 [1]: 100 nM
- IC50 [2]: > 50000 nM
- IC50 [3]: 750 nM
- IC50 [5]: 1900 nM
- EC50 [6]: 1000 nM
Compound: CCCc1cc(Oc2ccccc2)ccc1OCCCOc1ccc2c(c1)OC(C)(C(=O)O)CC2 (stereo unspecified)

- IC50 [2]: > 50000 nM
Compound: CC[C@@]1(C(=O)O)CCc2ccc(OCCCOc3ccc(Oc4ccc(F)cc4)cc3Cl)cc2O1

- IC50 [2]: 5000 nM
- IC50 [3]: 1200 nM
- IC50 [5]: 3000 nM
Compound: CCCc1cc(Oc2ccccc2)ccc1OCCCOc1ccc2c(c1)OC(CC(C)C)(C(=O)O)CC2 (stereo unspecified)

- EC50 [1]: 80 nM
- IC50 [2]: > 15000 nM
- IC50 [3]: 1400 nM
- EC50 [4]: 360 nM
- IC50 [5]: 120 nM
Compound: CC1(C(=O)O)CCc2ccc(OCCCOc3ccc(Oc4ccccc4)cc3Cl)cc2O1 (stereo unspecified)
